For assay [1], the target named is T1, 5-Lipoxygenase (Rattus norvegicus, UniProt P12527).
T1 sequence (P12527 1-673): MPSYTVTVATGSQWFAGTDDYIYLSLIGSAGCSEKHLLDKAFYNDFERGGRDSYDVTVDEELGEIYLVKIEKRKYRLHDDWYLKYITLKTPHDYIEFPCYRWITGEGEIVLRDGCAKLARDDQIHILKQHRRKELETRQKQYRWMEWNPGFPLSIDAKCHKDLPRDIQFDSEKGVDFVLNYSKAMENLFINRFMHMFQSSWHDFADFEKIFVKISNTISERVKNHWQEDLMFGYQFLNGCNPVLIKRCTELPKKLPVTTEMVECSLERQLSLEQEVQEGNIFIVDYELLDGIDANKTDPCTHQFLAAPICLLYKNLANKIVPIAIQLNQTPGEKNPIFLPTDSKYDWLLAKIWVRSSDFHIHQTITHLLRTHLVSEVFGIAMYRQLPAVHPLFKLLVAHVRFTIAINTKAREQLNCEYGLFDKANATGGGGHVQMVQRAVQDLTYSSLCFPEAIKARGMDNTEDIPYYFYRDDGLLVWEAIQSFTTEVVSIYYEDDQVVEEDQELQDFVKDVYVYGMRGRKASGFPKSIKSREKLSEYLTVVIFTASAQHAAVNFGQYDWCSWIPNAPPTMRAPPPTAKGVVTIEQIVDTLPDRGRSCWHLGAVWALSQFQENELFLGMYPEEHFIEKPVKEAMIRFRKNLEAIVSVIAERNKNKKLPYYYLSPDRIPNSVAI
The assay can be described thus: ARBL: 5-lipoxygenase (LTB4) in RBL-1 cells. Type of assay: cell-based. Also noted: endogenous in cells; host or cells: RBL-1 (rat basophilic leukemia). The settings on record: Table 4; ARBL/ARBC IC50 (μM) or % inhibition at 10 μM; RBL-1 cells, A23187. On the procedure: The testing methods used are described as follows:
The rat basophilic leukemia cell line (RBL-1) was obtained from the American Type Culture Collection (Rockville, Md.).
Radioimmunoassay (RIA) kits of LTB4 and PGF2α were obtained from Arnersham (Arlington Heights, IL) and Seragen (Boston, Mass.), respectively.
All tissue culture media were obtained from GIBCO (Grand Island, N.Y.).
RBL-1 cells are grown in suspension culture in Eagle's minimum essential medium supplemented with 12% fetal bovine serum at 37° C. in an incubator supplied with air-5% carbon dioxide. Cells are harvested by centrifugation. They are washed with cold phosphate-buffered saline, pH 7.4 (PBS; NaCl, 7.1 g; Na2 HPO4, 1.15 g; KH2 PO4, 0.2 g; and KCl, 0.2 g/L). Cells are finally suspended in PBS containing 1.0 mM calcium at a density of 2×10^6 cells/mL. Cells are incubated with and without test agent (in DMSO) (1% DMSO is without effect on arachidonic acid metabolism) for 10 minutes at room temperature. Calcium ionophore A23187 (5 μM) is added and cells are incubated for 7 minutes at 37° C. The reaction is stopped by chilling the tubes on ice for 10 minutes. Cells are separated by centrifugation and the supernatant is stored at -20° C. Aliquots (100 μL) are analyzed for LTB4 and PGF2α using radioimmunoassay kits as provided by the supplier.

Assay [2] has as its target T1, 5-Lipoxygenase. Put plainly: 5-lipoxygenase inhibition assay (20,000 xg supernatant of RBL cells). Type of assay: biochemical. Details: activity contained in the 20,000 xg supernatant from cultured rat basophilic leukemia (RBL) cells; endogenous in cells; host or cells: RBL (rat basophilic leukemia) cells, 20,000 xg supernatant. The settings on record: Table 4, read-out: 5-LO % Inhibition at 30 μM. On the procedure:
PROTOCOL FOR 5-LIPOXYGENASE INHIBITION ASSAY
Incubations contained 5% (v/v) RBL 20,000 xg supernatant in assay buffer (10 mM BES, 10 mM PIPES, 1 mM EDTA, 0.75 mM CaC12, 1 mMATP, 100 mMNaCl, pH 6.8). DMSO vehicle (2% v/v) with and without inhibitors is preincubated with the enzyme for 20 minutes at 37° C. before initiating the 5-lipoxygenase catalyzed reaction by adding […] [^14 C]arachidonic acid (55.8 mCi/mmol, New England Nuclear, Boston, Mass.) dissolved in 5 μL 0,028% (v/v) aqueous NH4 OH. After 20 minutes of additional incubation at 37° C., reactions are terminated by the addition of three volumes of methanol containing 100 μg triphenylphosphine. Samples are then analyzed by HPLC with radiometric detection for 5-1ipoxygenase reaction products.
All treatments are evaluated in duplicate and percent inhibition is computed by comparing the products formed in treatment incubations to the mean product formation in the vehicle control group.

The test system of assay [3] is human neutrophil adhesion to TNFα, IL-1α, and LPS stimulated human umbilical vein endothelial cells. The assay can be described thus: Modified method: inhibition of human neutrophil adhesion to TNF-stimulated HUVEC (calcein fluorescence). Type of assay: cell-based. The settings on record: for inhibition at 33.3 µM: Table 2, tested at a concentration of 33.3 μM (footnote a); for inhibition: Table 3. Details: inhibition: dose or concentration left out as unconfirmed. The text has this: MODIFIED METHOD FOR DETERMINING THE INHIBITION OF HUMAN NEUTROPHIL ADHESION TO TNFα, IL-1α, AND LPS STIMULATED HUMAN UMBILICAL VEIN ENDOTHELIAL CELLS BY 3-ALKOXY-BENZO[b]THIOPHENE-2-CARBOXAMIDES
The previous assay using ^51 Cr labeled human neutrophils has been modified. The neutrophils are now labeled with the fluorescent dye calcein. The current method allows for quantification of neutrophil adherence by fluorescence spectroscopy.
Second passage HUVEC (Clonetics Corporation, San Diego, Calif., CC-2617) were seeded into Corning (Corning glass works, Corning, N.Y.) 96-well cell culture plates at approximately 5×10^3 cells/well and grown to confluency in supplemented endothelial basal medium (EBM, MCDB-131, Clonetics, 10 ng/mL EGF, 1 μg/mL hydrocortisone, 0.4% bovine brain extract, 5% Fetal Bovine Serum). One day prior to running the assay, typically 3 days postseeding, the cultures were refed with 0.2 mL/well supplemented EBM (S-EBM).
Preparation of Test Compounds
Test compounds were prepared as 10 mL stock solutions at a concentration of 1.0 mM. The compounds were initially solubilized in 0.1 mL DMSO followed by the addition of 9.9 mL S-EBM. The drug preparations were then diluted in one step to a concentration of 66.6 μM. Solubilizations and dilutions were performed in polystyrene containers.
Isolation of Human Neutrophils
Human neutrophils were isolated from anticoagulant-treated venous blood obtained from healthy volunteers according to the method of Ferrante and Thong. The cell preparations consisted of greater than 98% neutrophils.
Recombinant human tumor necrosis factor-α (TNF, Genzyme, Boston, Mass., code TNF-H) was prepared at 400 U/mL in S-EBM. Stock TNF was prepared to 20,000 U/mL in Delbecco's phosphate-buffered saline (PBS, Gibco, Grand Island N.Y.) plus 0.1% BSA and stored at -70° C. […] This was accomplished by adding 0.1 mL of 400 U/mL TNF and 0.1 mL 66.6 μM test compound. These additions were done slowly as to not disrupt the HUVEC monolayer. Each compound was tested in six wells. Unstimulated (vehicle control) and TNF-stimulated without test compound treatments were also run in each plate.
One hour prior to adding the neutrophils to the HI/VEC, neutrophils (5×10^6 /mL) were labeled for 30 minutes at 37° C. with 5 μM calcine-AM (Molecular Probes, Eugene, OR) in Hanks' balanced salt solution plus 0.45% BSA. Stock calcein was prepared to 5 mM in anhydrous DMSO and stored desiccated at -20° C. At the end of the incubation the cells were washed two times in cold HBSS and resuspended to a final concentration of 1×10^6 cells/mL in unsupplemented EBM.
Addition of Neutrophils to HUVEC
At the end of the 4-hour stimulation and immediately prior to the addition of the neutrophils to the HUVEC monolayer, the plates were washed with 0.2 mL warm unsupplemented EBM to remove TNF and drug. Neutrophils (1×10^5 cells) were slowly added to each of the treated wells and incubated for 30 minutes at 37° C. At the end of the incubation the plates were washed two times with 0.2 mL warm unsupplemented EBM followed by a final addition of 0.1 mL for plate scanning.
Determination of Relative Fluorescence
The relative fluorescence was determined using a Millipore Cytofluor 2300 system (excitation=480, emission=530, sensitivity=4).
Results were expressed as means of percent inhibition of TNF-stimulated adherence, using the following equation. [formula] […] Linear regression analysis of the means of the inhibition values were used to determine the IC50.
The compounds of Examples 36-44 in Table 2 and 45-53 in Table 3 were tested according to the modified method.

`COc1ccc2sc(C(N)=O)c(OC(C)C)c2c1` [Example 1, 5-methoxy-3-(1-methylethoxy)benzo[b]thiophene-2-carboxamide]: the IC50 against 5-Lipoxygenase [1] amounted to 36 µM. Besides, the inhibition at 30 µM at 5-Lipoxygenase [2] is 13%.

Take `CCOC(=O)c1ccc(NC(=O)c2sc3ccc(OC)cc3c2OC(C)C)nc1` [Example 36, Ethyl 6-[[[5-methoxy-3-(1-methylethoxy)benzo[b]thien-2-yl]carbonyl]amino]-3-pyridinecarboxylate]: the inhibition at 33.3 µM in assay [3] was 26%.

For the molecule `COc1ccc2sc(C(=O)Nc3ccc(C(=O)O)cn3)c(OC(C)C)c2c1` [Example 37], the inhibition at 33.3 µM in assay [3] is 8%.

Turning to `CCOC(=O)Cc1csc(NC(=O)c2sc3ccc(OC)cc3c2OC(C)C)n1` [Example 38, Ethyl 2-[[[5-methoxy-3-(1-methylethoxy)benzo[b]thien-2-yl]carbonyl]amino]-4-thiazoleacetate], the inhibition at 33.3 µM in assay [3] was 72%.

In the case of `COc1ccc2sc(C(=O)Nc3nc(CC(=O)O)cs3)c(OC(C)C)c2c1` [Example 39, 2-[[[5-Methoxy-3-(1-methylethoxy)benzo[b]thien-2-yl]carbonyl]amino]-4-thiazoleacetic acid], the inhibition at 33.3 µM in assay [3] is 26%.

In the case of `COc1ccc2sc(C(=O)Nc3ccc(C(=O)O)cc3OC)c(OC(C)C)c2c1` [Example 40, 3-Methoxy-4-[[[5-methoxy-3-(1-methylethoxy)benzo [b]thien-2-yl]carbonyl]amino]benzoic acid], the inhibition at 33.3 µM in assay [3] was 34%.

Turning to `COc1ccc2sc(C(=O)Nc3ccc(C(=O)O)c(O)c3)c(OC(C)C)c2c1` [Example 42, 2-Hydroxy-4-[[[5-methoxy-3-(1-methylethoxy)benzo[b]thien-2-yl]carbonyl]arnino]benzoic acid], the IC50 in assay [3] (Table 2, footnote c not defined) was 34 µM.

With `CNC(=O)c1c(OC(C)C)c2cc(OC)ccc2[s+]1[O-]` (centres unmarked) [Example 46, 5-Methoxy-N-methyl-3-(1-methylethoxy)benzo[b]thiophene-2-carboxamide-1-oxide], the inhibition in assay [3] is 43%.

For `COc1ccc2c(c1)c(OC(C)C)c(C(=O)NCc1ccccc1)[s+]2[O-]` (centres unmarked) [Example 47, 5-Methoxy-3-(1-methylethoxy)-N-(phenylmethyl)benzo[b]thiophene-2-carboxamide-1-oxide], the inhibition in assay [3] is 15%.

In the case of `CC(C)Oc1c(C(N)=O)[s+]([O-])c2ccc(O)cc12` (centres unmarked) [Example 49, 5-Hydroxy-3-(1-methylethoxy)benzo[b]thiophene-2-carboxaraide-1-oxide], the inhibition in assay [3] is 79%.

`Cc1ccc2c(c1)c(OC(C)C)c(C(N)=O)[s+]2[O-]` (centres unmarked) [Example 50, 5-Methyl-3-(1-methylethoxy)benzo[b]thiophene-2-carboxaraide-1-oxide]: in assay [3], the inhibition was 69%.

As for `COc1ccc2c(c1)c(Oc1ccccc1)c(C(N)=O)[s+]2[O-]` (centres unmarked) [Example 51, 5-Methoxy-3-phenoxybenzo[b]thiophene-2-carboxamide-1-oxide], the inhibition in assay [3] is 15%.

For the molecule `COc1ccc2c(c1)c(OC)c(C(N)=O)[s+]2[O-]` (centres unmarked) [Example 53, 3,5-Dimethoxybenzo[b]thiophene-2-carboxamide-1-oxide], in assay [3], the inhibition was 40%.

One may read the IC50 as the concentration that inhibits the measured activity by half. By inhibition is commonly meant the percentage by which the read-out fell short of the control.

Values taken from patent US5356926A, “3-alkyloxy-, aryloxy-, or arylalkyloxy-benzo [β]thiophene-2-carboxamides as inhibitors of cell adhesion” (Warner-Lambert Company, priority 1993, dated 1994).
